Experimental data: patent US20240344241A1, “PROTEINACEOUS MOLECULES AND USES THEREFOR” (THE UNIVERSITY OF QUEENSLAND, priority 2021, published 2024)
Bridge positions count the residues as written; N and C are the ends. Peptide text beside a SMILES is read from it.

These compounds were tested against T1, Human β-FXIIa (Homo sapiens, UniProt P00748) (assay: FXIIa competitive inhibition assay, fluorescent substrate Boc-QGR-MCA).
T1 construct: Human β-FXIIa was obtained from Molecular Innovations, together with human FXa, human FXIa, human α-thrombin, and human plasma kallikrein; purchased Molecular Innovations; host or cells: purified from human plasma
T1 sequence (P00748 373-615 limits assumed, other chains not shown): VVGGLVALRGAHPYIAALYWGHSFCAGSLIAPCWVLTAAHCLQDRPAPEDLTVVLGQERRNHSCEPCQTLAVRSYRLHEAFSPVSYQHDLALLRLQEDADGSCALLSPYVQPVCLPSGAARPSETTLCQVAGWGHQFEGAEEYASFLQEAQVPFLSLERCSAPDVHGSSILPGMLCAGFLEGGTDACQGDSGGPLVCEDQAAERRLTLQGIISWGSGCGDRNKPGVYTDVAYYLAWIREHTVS
Format: biochemical
Text: Cyclic [I7F]MCoFx1 (also referred to as cyclic MCoFx6) was synthesized using solid phase peptide synthesis ([[…]] [SEQ ID NO: 97]). For this inhibitor, Tyr33 was mutated back to serine as per the original mRNA display screen (FIG. 1). Cyclic MCoFx6 was screened using a competitive inhibition assay, with the substrate being changed from a colorimetric substrate (Ac-QRFR-pNA in the data of Tables 7 and 10) to a fluorescent substrate (Boc-QGR-MCA) to allow the assay to be run with a lower concentration of enzyme. The assay was performed as described for Examples 2 and 3, except that the FXIIa concentration was 0.5 nM and the substrate concentration was 50 μM (KM=187 μM).
The new variants were screened using competitive inhibition assays, with the substrate being changed from a colorimetric substrate (Ac-QRFR-pNA in the data of Tables 7 and 10) to a fluorescent substrate (Boc-QGR-MCA) to allow the assay to be run with a lower concentration of enzyme. Assays were performed as described for Examples 2 and 3, except that the FXIIa concentration was 0.5 nM and the substrate concentration was 50 μM (KM=187 μM). […] The effect of amino acid substitutions within loop 2 (Arg12, Arg13), loop 5 (Ala25, Arg27) or loop 6 (Asp34) on the activity of cyclic MCoFx7 against FXIIa was determined (refer to Table 14). […] Additionally, mutating Arg to Glu (reversing the side chain charge) only led to two-fold weaker activity. The adjacent residue Arg13 could also be mutated to Lys with no change in activity. Within loop 5, mutating Ala25 to Lys produced a slight gain in activity, whereas the Ala to Pro mutation led to a slight decrease in activity. Both mutations at Arg27 led to losses in activity in the order of two-fold (His) or 3.2-fold (Gly).
The activity of acyclic and cyclic MCoFx1-5 and analogues thereof was assessed in competitive inhibition assays, as previously described in Swedberg et al. (2016) J Med Chem, 59: 7287-7292. Human β-FXIIa was obtained from Molecular Innovations, together with human FXa, human FXIa, human α-thrombin, and human plasma kallikrein. Human cationic trypsin and human plasmin were obtained from Sigma-Aldrich, and recombinant human matriptase was sourced from R&D Systems. Recombinant human urokinase (uPA) and recombinant human tissue plasminogen activator (tPA) were expressed in Expi293 cells, as previously described in Li et al. (2019) Chembiochem, 20: 46-50. FXIIa inhibition assays were performed in clear, low-binding 96-well plates using 250 μL (final volume) of assay buffer (0.1 M Tris-HCl pH 8.0, 0.1 M NaCl, 10 mM CaCl2 and 0.005% Triton X-100). Inhibitors were serially diluted and incubated with 10 nM FXIIa at room temperature to reach equilibrium. After adding 100 μM Ac-QRFR-pNA substrate (KM=162 μM), enzymatic activity was measured by monitoring release of the pNA moiety using a TECAN infinite M1000 Pro plate reader (A=405 nm, reading interval, 10 s; assay time course, 7 min). Assays were conducted in three times in duplicate. Substrate kinetic constants (Michaelis-Menten) and inhibition constants (Morrison K) were determined by non-linear regression using Prism 7 (GraphPad). Selectivity assays with off-target proteases were performed in a similar way, except that different concentrations of enzyme and substrate were used, as indicated in Table 16. For assays using a fluorescent substrate (peptide-4-methylcoumaryl-7-amide, MCA), black low-binding 96-well plates were used and activity was measured using a TECAN infinite M1000 pro plate reader (λex 360 nm, λem 460 nm, reading interval, 30 s; assay time course, 5-30 min).

| Compound | Ki |
| --- | --- |
| CC[C@H](C)[C@@H]1NC(=O)CNC(=O)CNC(=O)[C@H](CC(=O)O)NC(=O)[C@H](CO)NC(=O)CNC(=O)[C@H](CO)NC(=O)CNC(=O)[C@@H]2CSSC[C@@H]3NC(=O)[C@H](CC(=O)O)NC(=O)[C@H](CO)NC(=O)[C@H](CC(=O)O)NC(=O)[C@H](CCCNC(=N)N)NC(=O)[C@H](CCCNC(=N)N)NC(=O)[C@@H]4CSSC[C@H](NC(=O)[C@H]([C@@H](C)CC)NC(=O)[C@H](CSSC[C@H](NC1=O)C(=O)N1CCC[C@H]1C(=O)N[C@@H](CCCNC(=N)N)C(=O)N[C@@H]([C@@H](C)CC)C(=O)NCC(=O)N[C@@H](CCCNC(=N)N)C(=O)N[C@@H](CC(C)C)C(=O)N4)NC(=O)[C@H](C)NC(=O)CNC(=O)[C@@H]1CCCN1C3=O)C(=O)N[C@@H](CCCNC(=N)N)C(=O)N[C@@H](CCCCN)C(=O)N[C@@H]([C@@H](C)O)C(=O)N[C@@H](CCCNC(=N)N)C(=O)N[C@@H](Cc1ccccc1)C(=O)N2 [Cyclic [A25K]MCoFx7] (cyclo(ACICRKTRFCGSGSDGGICPRIGRLCRRDSDCPG); disulfide 2-19, 4-26, 10-32) | 46 ± 5 pM |
| CC[C@H](C)[C@@H]1NC(=O)CNC(=O)CNC(=O)[C@@H]2CCCN2C(=O)[C@H](CO)NC(=O)CNC(=O)[C@H](CO)NC(=O)CNC(=O)[C@@H]2CSSC[C@@H]3NC(=O)[C@H](CC(=O)O)NC(=O)[C@H](CO)NC(=O)[C@H](CC(=O)O)NC(=O)[C@H](CCCNC(=N)N)NC(=O)[C@H](CCCNC(=N)N)NC(=O)[C@@H]4CSSC[C@H](NC(=O)[C@H]([C@@H](C)CC)NC(=O)[C@H](CSSC[C@H](NC1=O)C(=O)N1CCC[C@H]1C(=O)N[C@@H](CCCNC(=N)N)C(=O)N[C@@H]([C@@H](C)CC)C(=O)NCC(=O)N[C@@H](CCCNC(=N)N)C(=O)N[C@@H](CC(C)C)C(=O)N4)NC(=O)[C@H](C)NC(=O)CNC(=O)[C@@H]1CCCN1C3=O)C(=O)N[C@@H](CCCNC(=N)N)C(=O)N[C@@H](C)C(=O)N[C@@H]([C@@H](C)O)C(=O)N[C@@H](CCCNC(=N)N)C(=O)N[C@@H](Cc1ccccc1)C(=O)N2 [Cyclic [D34P]MCoFx7] (cyclo(ACICRATRFCGSGSPGGICPRIGRLCRRDSDCPG); disulfide 2-19, 4-26, 10-32) | 91 pM |
| CC[C@H](C)[C@@H]1NC(=O)CNC(=O)CNC(=O)[C@H](CC(=O)O)NC(=O)[C@H](CO)NC(=O)CNC(=O)[C@H](CO)NC(=O)CNC(=O)[C@@H]2CSSC[C@@H]3NC(=O)[C@H](CC(=O)O)NC(=O)[C@H](CO)NC(=O)[C@H](CC(=O)O)NC(=O)[C@H](CCCNC(=N)N)NC(=O)[C@H](CCC(=O)O)NC(=O)[C@@H]4CSSC[C@H](NC(=O)[C@H]([C@@H](C)CC)NC(=O)[C@H](CSSC[C@H](NC1=O)C(=O)N1CCC[C@H]1C(=O)N[C@@H](CCCNC(=N)N)C(=O)N[C@@H]([C@@H](C)CC)C(=O)NCC(=O)N[C@@H](CCCNC(=N)N)C(=O)N[C@@H](CC(C)C)C(=O)N4)NC(=O)[C@H](C)NC(=O)CNC(=O)[C@@H]1CCCN1C3=O)C(=O)N[C@@H](CCCNC(=N)N)C(=O)N[C@@H](C)C(=O)N[C@@H]([C@@H](C)O)C(=O)N[C@@H](CCCNC(=N)N)C(=O)N[C@@H](Cc1ccccc1)C(=O)N2 [Cyclic [R12E]MCoFx7] (cyclo(ACICRATRFCGSGSDGGICPRIGRLCERDSDCPG); disulfide 2-19, 4-26, 10-32) | 130 ± 7 pM |
| CC[C@H](C)[C@@H]1NC(=O)CNC(=O)CNC(=O)[C@H](CC(=O)O)NC(=O)[C@H](CO)NC(=O)CNC(=O)[C@H](CO)NC(=O)CNC(=O)[C@@H]2CSSC[C@@H]3NC(=O)[C@H](CC(=O)O)NC(=O)[C@H](CO)NC(=O)[C@H](CC(=O)O)NC(=O)[C@H](CCCNC(=N)N)NC(=O)[C@H]([C@@H](C)O)NC(=O)[C@@H]4CSSC[C@H](NC(=O)[C@H]([C@@H](C)CC)NC(=O)[C@H](CSSC[C@H](NC1=O)C(=O)N1CCC[C@H]1C(=O)N[C@@H](CCCNC(=N)N)C(=O)N[C@@H]([C@@H](C)CC)C(=O)NCC(=O)N[C@@H](CCCNC(=N)N)C(=O)N[C@@H](CC(C)C)C(=O)N4)NC(=O)[C@H](C)NC(=O)CNC(=O)[C@@H]1CCCN1C3=O)C(=O)N[C@@H](CCCNC(=N)N)C(=O)N[C@@H](C)C(=O)N[C@@H]([C@@H](C)O)C(=O)N[C@@H](CCCNC(=N)N)C(=O)N[C@@H](Cc1ccccc1)C(=O)N2 [Cyclic [R12T]MCoFx7] (cyclo(ACICRATRFCGSGSDGGICPRIGRLCTRDSDCPG); disulfide 2-19, 4-26, 10-32) | 65 ± 5 pM |
| CC[C@H](C)[C@@H]1NC(=O)CNC(=O)CNC(=O)[C@H](CC(=O)O)NC(=O)[C@H](CO)NC(=O)CNC(=O)[C@H](CO)NC(=O)CNC(=O)[C@@H]2CSSC[C@@H]3NC(=O)[C@H](CC(=O)O)NC(=O)[C@H](CO)NC(=O)[C@H](CC(=O)O)NC(=O)[C@H](CCCNC(=N)N)NC(=O)[C@H](C(C)C)NC(=O)[C@@H]4CSSC[C@H](NC(=O)[C@H]([C@@H](C)CC)NC(=O)[C@H](CSSC[C@H](NC1=O)C(=O)N1CCC[C@H]1C(=O)N[C@@H](CCCNC(=N)N)C(=O)N[C@@H]([C@@H](C)CC)C(=O)NCC(=O)N[C@@H](CCCNC(=N)N)C(=O)N[C@@H](CC(C)C)C(=O)N4)NC(=O)[C@H](C)NC(=O)CNC(=O)[C@@H]1CCCN1C3=O)C(=O)N[C@@H](CCCNC(=N)N)C(=O)N[C@@H](C)C(=O)N[C@@H]([C@@H](C)O)C(=O)N[C@@H](CCCNC(=N)N)C(=O)N[C@@H](Cc1ccccc1)C(=O)N2 [Cyclic [R12V]MCoFx7] (cyclo(ACICRATRFCGSGSDGGICPRIGRLCVRDSDCPG); disulfide 2-19, 4-26, 10-32) | 69 ± 5 pM |
| CC[C@H](C)[C@@H]1NC(=O)CNC(=O)CNC(=O)[C@H](CC(=O)O)NC(=O)[C@H](CO)NC(=O)CNC(=O)[C@H](CO)NC(=O)CNC(=O)[C@@H]2CSSC[C@@H]3NC(=O)[C@H](CC(=O)O)NC(=O)[C@H](CO)NC(=O)[C@H](CC(=O)O)NC(=O)[C@H](CCCCN)NC(=O)[C@H](CCCNC(=N)N)NC(=O)[C@@H]4CSSC[C@H](NC(=O)[C@H]([C@@H](C)CC)NC(=O)[C@H](CSSC[C@H](NC1=O)C(=O)N1CCC[C@H]1C(=O)N[C@@H](CCCNC(=N)N)C(=O)N[C@@H]([C@@H](C)CC)C(=O)NCC(=O)N[C@@H](CCCNC(=N)N)C(=O)N[C@@H](CC(C)C)C(=O)N4)NC(=O)[C@H](C)NC(=O)CNC(=O)[C@@H]1CCCN1C3=O)C(=O)N[C@@H](CCCNC(=N)N)C(=O)N[C@@H](C)C(=O)N[C@@H]([C@@H](C)O)C(=O)N[C@@H](CCCNC(=N)N)C(=O)N[C@@H](Cc1ccccc1)C(=O)N2 [Cyclic [R13K]MCoFx7] (cyclo(ACICRATRFCGSGSDGGICPRIGRLCRKDSDCPG); disulfide 2-19, 4-26, 10-32) | 68 ± 3 pM |
| CC[C@H](C)[C@@H]1NC(=O)CNC(=O)CNC(=O)[C@H](CC(=O)O)NC(=O)[C@H](CO)NC(=O)CNC(=O)[C@H](CO)NC(=O)CNC(=O)[C@@H]2CSSC[C@@H]3NC(=O)[C@H](CC(=O)O)NC(=O)[C@H](CO)NC(=O)[C@H](CC(=O)O)NC(=O)[C@H](CCCNC(=N)N)NC(=O)[C@H](CCCNC(=N)N)NC(=O)[C@@H]4CSSC[C@H](NC(=O)[C@H]([C@@H](C)CC)NC(=O)[C@H](CSSC[C@H](NC1=O)C(=O)N1CCC[C@H]1C(=O)N[C@@H](CCCNC(=N)N)C(=O)N[C@@H]([C@@H](C)CC)C(=O)NCC(=O)N[C@@H](CCCNC(=N)N)C(=O)N[C@@H](CC(C)C)C(=O)N4)NC(=O)[C@H](C)NC(=O)CNC(=O)[C@@H]1CCCN1C3=O)C(=O)N[C@@H](CCCNC(=N)N)C(=O)N[C@@H](C)C(=O)N[C@@H]([C@@H](C)O)C(=O)NCC(=O)N[C@@H](Cc1ccccc1)C(=O)N2 [Cyclic [R27G]MCoFx7] (cyclo(ACICRATGFCGSGSDGGICPRIGRLCRRDSDCPG); disulfide 2-19, 4-26, 10-32) | 210 ± 8 pM |
